Marks after values point to notes of the source that are not given here.

For the test, the system named is cassava leaf explants. The test is described as follows: Primary somatic embryogenesis from leaf explants (mature embryos per cultured leaf explant). Type of test: cell-based. The conditions noted are these: for leaf explants that formed ME / number of ME/CLE: maximum. How it is done: The procedure to obtain FEC is outlined in FIG. 1. 1t starts with the induction of primary embryos. Primary embryos are formed in a two step procedure. In the first step explants are cultured on medium supplemented with salts and vitamins (preferably Murashige and Skoog (1962)), a carbohydrate source (for example 20 g/l sucrose) and an auxin (e.g. 1–8 mg/l picloram, or dicamba or 2,4-D) for the initiation of embryos. After 10 to 15 days on this first medium bipolar torpedo shaped embryos are formed. […] After transfer of the explants with torpedo shaped embryos to a step 2 medium (the same medium as step 1 but without an auxin, with eventually the addition of cytokinins) the torpedo shaped embryos become mature.
In the presently used protocol there is genotypic variation in the number of mature embryos formed per cultured explant. The genotypes M.Col1505, M.Col22 and Gading gave the highest numbers of mature embryos per cultured leaf explant (ME/CLE). However, the number of mature embryos formed was low. In M.Col22 a maximum of 22% of the leaf explants isolated from in vitro grown plants and cultured on a step 1 medium with 4 mg/l 2,4-D, formed ME with a maximum number of 0.8 ME/CLE. On a step 1 medium with 8 mg/l 2,4-D a maximum of 49% of the leaf explants formed ME with a maximum number of 3.5 ME/CLE.
Mathews et al. (1993) improved the efficiency of primary embryogenesis in the genotype M.Co11505 by transferring explants after 15 days of step 1 medium to a growth regulator-free medium supplemented with 0.5% charcoal. On this medium maturation was improved and as a result the number of mature embryos increased from 0.4 in the control to 3,4 ME/CLE. The best results were obtained if donor plants were pretreated with auxins as 2,4-D or picloram or Dicamba. For this, plants were grown in liquid MS20 medium and supplied with the auxin (final concentration 8 mg/l) after 12 days of growth. Two days later leaf explants were isolated of the donor plants and cultured on step 1 medium with 8 mg/l 2,4-D, picloram or Dicamba.

[1] abbreviates: M.Col22, step 1 medium with 4 mg/l 2,4-D.
Setting [2] is: M.Col22, step 1 medium with 8 mg/l 2,4-D.

For the compound `O=C(O)COc1ccc(Cl)cc1Cl` [2,4-D, 2,4-dichlorophenoxyacetic acid], the “leaf explants that formed ME” value under setting [1] is given as at most 22% and the “leaf explants that formed ME” value under setting [2] is at most 49%. The “number of ME/CLE” value by setting is: under setting [1], at most 0.8 ME/CLE; under setting [2], at most 3.5 ME/CLE. Further, the “primary mature embryos per cultured leaf explant after 2,4-D pretreatment” value reads like this: (genotype M.Col22, pretreatment yes) 9.4 # mature embryos per cultured leaf explant; (genotype TMS 4(2)1244, pretreatment yes) 0 # mature embryos per cultured leaf explant; (genotype TMS 30001, pretreatment yes) 0 # mature embryos per cultured leaf explant; (genotype TMS 30211, pretreatment yes) 0 # mature embryos per cultured leaf explant; (genotype TMS 30395, pretreatment yes) 0.1 # mature embryos per cultured leaf explant; (genotype TMS 30555, pretreatment yes) 0.7 # mature embryos per cultured leaf explant. Also, the “primary mature embryos per cultured leaf explant after 2,4-D pretreatment” value is 0 # mature embryos per cultured leaf explant (genotype TMS 30572, pretreatment yes); <0.1 # mature embryos per cultured leaf explant (genotype TMS 50395, pretreatment yes); 1.1 # mature embryos per cultured leaf explant (genotype TMS 60444, pretreatment yes); <0.1 # mature embryos per cultured leaf explant (genotype TMS 60506, pretreatment yes); <0.1 # mature embryos per cultured leaf explant (genotype TMS 90059, pretreatment yes); 0.2 # mature embryos per cultured leaf explant (genotype TMS 90853, pretreatment yes).

Values taken from patent US7022836B2, “Methods for producing and transforming cassava protoplasts” (National Starch and Chemical Investment Holding Corporation, priority 1999, dated 2006).
